Results taken from patent publication US20230372346A1, “TREATMENT REGIMENS FOR EXON-20 INSERTION MUTANT EGFR CANCERS” (CULLINAN PEARL CORP., priority 2020, published 2023).
Entries after “also recorded” stand apart in the source; their conditions may differ. Where two headings read alike, the source gives them in different places.

Experiments:
[1] = Phase 1/2a study, pharmacokinetics; assay type: in vivo, human
Description: (§1) This is a Phase 1/2a, open-label, multicenter, first-in-human trial to evaluate the safety and tolerability, PK, PD, and preliminary efficacy of CLN-081 in patients with non-small cell lung cancer (NSCLC) harboring epidermal growth factor receptor (EGFR) exon 20 insertion mutations.
PK analysis has been performed with CLN-081 plasma concentrations determined at pre-dose, 0.5, 1, 2, 3, 4, 6, 8 and 24 hour % post initial dose on Cycle (C) I Day (D) I and C1D15. […] CLN-081 has typically been rapidly absorbed with tmax values ranging from 0.5 to 2 hours and a mean average terminal phase elimination half-life (t1/2) of approximately 4 hours.

[2] = test system: NSCLC harboring EGFR exon 20 insertion mutations; experiment: Phase 1/2a study, antitumor activity (RECIST v1.1); assay type: in vivo, human
Description: as §1
The antitumor activity of study treatment will be assessed according to RECIST v1.1 guideline
As part of this phase 1/2 study, dose levels including 30, 45, 65, 100 and 150 mg BID were explored during the escalation phases. Efficacy expansions were initiated at 30, 65 and 100 mg BID. A Phase 2a expansion was initiated at 100 mg BID after meeting protocol specified safety and efficacy criteria. Tumor assessments were performed at baseline, after 6 weeks of CLN-081 administration and every 9 weeks thereafter.

[3] = unbound, 100 mg BID, patient 0102-001
[4] = unbound, 100 mg BID, patient 0104-005
[5] = unbound, 100 mg BID, patient 0701-001

SMILES: C=CC(=O)N[C@H]1C=C(C)c2c(-c3cnc4ccccc4c3)c3c(N)ncnc3n2C1 [Compound 1, (S)—N-(4-amino-6-methyl-5-(quinolin-3-yl)-8,9-dihydropyrimido[5,4-b]indolizin-8-yl)acrylamide]
- change in systemic exposure levels / drug accumulation ([1]; C1D1 to C1D15, listed as CLN-081): Minimal to no increase; also recorded: no evidence of meaningful drug accumulation
- dose proportionality of Cmax and AUC ([1]; across the dose range tested): dose proportional increase
- half-life ([1]; human, plasma, oral, 100 mg, 100 mg BID, patient 0102-001, read-out: T1/2 (converted)): 3.6 h
- half-life ([1]; human, plasma, oral, 100 mg, 100 mg BID, patient 0104-005, read-out: T1/2 (converted)): 6.1 h
- half-life ([1]; human, plasma, oral, 100 mg, 100 mg BID, patient 0701-001, read-out: T1/2 (converted)): 3.6 h
- half-life ([1]; human, plasma, po, oral BID, read-out: mean average terminal phase elimination half-life (t1/2) (converted)): ~4 h
- Tmax ([1]; human, plasma, oral, 30-100 mg BID): 0.5 to 2 h
- uAUC* [1, 3]: 957 ng·h/mL
- uCmax [1, 3]: 260 ng/mL
- uAUC* [1, 4]: 1213 ng·h/mL
- uCmax [1, 4]: 274 ng/mL
- uAUC* [1, 5]: 1353 ng·h/mL
- uCmax [1, 5]: 418 ng/mL
- AUC0-8hr versus dose ([1]; unbound, 30 to 100 mg BID): generally increase with increasing dose
- Cmax versus dose ([1]; unbound, 30 to 100 mg BID): generally increase with increasing dose
- Best response PR, % ([2]; 30 mg BID (n = 8)): 38%
- Best response SD, % ([2]; 30 mg BID (n = 8)): 62%
- Confirmed response, % ([2]; 30 mg BID (n = 8)): 38%
- Disease Control Rate (PR + SD ≥ 6 mo), % ([2]; 30 mg BID (n = 8)): 62%
- Best response SD, % ([2]; 45 mg BID (n = 1)): 100%
- Best response PD, % ([2]; 65 mg BID (n = 14)): (7) %
- Best response PR, % ([2]; 65 mg BID (n = 14)): (50) %
- Best response SD, % ([2]; 65 mg BID (n = 14)): (43) %
- Confirmed response, % ([2]; 65 mg BID (n = 14)): (14) %
- Disease Control Rate (PR + SD ≥ 6 mo), % ([2]; 65 mg BID (n = 14)): (57) %
- Pending confirmation, % ([2]; 65 mg BID (n = 14)): (21) %
- Unconfirmed response, % ([2]; 65 mg BID (n = 14)): (14) %
- Best response PR, % ([2]; 100 mg BID (n = 13)): (54) %
- Best response SD, % ([2]; 100 mg BID (n = 13)): (46) %
- Confirmed response, % ([2]; 100 mg BID (n = 13)): (46) %
- Disease Control Rate (PR + SD ≥ 6 mo), % ([2]; 100 mg BID (n = 13)): (69) %
- Unconfirmed response, % ([2]; 100 mg BID (n = 13)): (8) %
- evaluable patients who achieved a PR ([2]; 100 mg BID, 7/13, 6 confirmed and 1 unconfirmed): 54%
- Best response PR, % ([2]; 150 mg BID (n = 6)): 67%
- Best response SD, % ([2]; 150 mg BID (n = 6)): 33%
- Confirmed response, % ([2]; 150 mg BID (n = 6)): 33%
- Disease Control Rate (PR + SD ≥ 6 mo), % ([2]; 150 mg BID (n = 6)): 83%
- Pending confirmation, % ([2]; 150 mg BID (n = 6)): 33%
- objective responses (all partial responses) ([2]; 21 of 42 evaluable patients across dose levels): 50%
- response-evaluable patients who remained on treatment at the data cut-off ([2]; 22/42 across dose levels): 52%
- Disease control (PR or SD ≥6 months) ([2]; 27/42 across all doses): 64%
- patients with stable disease (SD) or PR as the best response ([2]; 41/42 across dose levels): 98%
- patients with disease progression as the best response ([2]; across dose levels): one
- antitumor activity ([2]; heavily-pretreated patients, across EGFR Ins 20 variants and dose levels): encouraging antitumor activity
- dose cohorts in which partial responses were registered ([2]; in vivo): all dose cohorts tested so far
- lowest dose cohort at which partial response was reported ([2]; in vivo): 30 mg BID
- unconfirmed objective responses, patients ([2]; of 21 responders, including 5 pending a confirmatory scan): 8
- confirmed objective responses, patients ([2]; of the 21 patients achieving an objective response): 13
- response in patients previously treated with poziotinib and TAK788 (mobocertinib) ([2]; some patients): partial responses
